Values quoted from earlier work as cited in patent US6428772B1, “Acne treatment composition with cooling effect” (Blistex Inc., priority 2001, dated 2002).
Like-named read-outs stand apart in the source and are kept apart here.

Key:
[1] = not given; remark: listed apart in the source
[2] = tested on: histamine induced itching; settings: Neuroscience Letters 1995, 187:3, pp. 157-160

| SMILES | solubility in water (water) | solubility in alcohol [1] | pH of the solution produced (1 gram in about 460 ml of water) | volume of water dissolving 1 gram (1 gram, water, room temperature) | solubility in water (water, room temperature) | volume of alcohol dissolving 1 gram ([1]; 1 gram) | effect on histamine induced itching [2] |
| --- | --- | --- | --- | --- | --- | --- | --- |
| O=C(OOC(=O)c1ccccc1)c1ccccc1 [Benzoyl peroxide, benzoyl peroxide] | sparingly soluble | sparingly soluble |  |  |  |  |  |
| O=C(O)c1ccccc1O [Salicylic acid, salicylic acid] | sparingly soluble |  | 2.4 | about 460 ml | about 0.2 % by weight | about 2.7 ml |  |
| CC1CCC(C(C)C)C(O)C1 (centres unmarked) [menthol] |  |  |  |  |  |  | effective |
